According to US8772500B2, “TRPV3 modulators” (AbbVie Inc., priority 2011, dated 2014):

What was measured:
[1] = In vitro human microsomal stability assay; assay type: in vitro ADME
Description: (§1) Test compounds were evaluated for metabolic stability in an in vitro rat microsomal stability assay using rat (Sprague-Dawley, from BD Biosciences) liver microsomes and/or an in vitro human microsomal stability assay using human (Xenotech) liver microsomes. […] Incubations were carried out at 37° C. with a final incubation volume of 135 μL. […] A 1.5 μL aliquot of reduced nicotine adenine disphosphonucleotide (NADPH) (Chem-Impex Int'L Inc., Lot 12532024) was also added to the time-zero plates.

[2] = In vitro rat microsomal stability assay; assay type: in vitro ADME, rat (Sprague-Dawley)
Description: as §1

[3] = Sprague-Dawley, rat, 0.5 h, 0.5 μM, pH 7.4
[4] = 0.5 μM substrate, 0.25 mg/mL microsomal protein, pH 7.4, 37° C., NADPH, 30 minutes

| HUMAN MICROSOMAL STABILITY (% REMAINING AFTER 30 MINUTES) ([1]; human, 0.5 h, 0.5 μM, pH 7.4) [%] | RAT MICROSOMAL STABILITY (% REMAINING AFTER 30 MINUTES) [2, 3] [%] | SMILES | HUMAN MICROSOMAL STABILITY (% REMAINING AFTER 30 MINUTES) [1, 4] [%] | RAT MICROSOMAL STABILITY (% REMAINING AFTER 30 MINUTES) [2, 4] [%] |
| --- | --- | --- | --- | --- |
| 0.08 | <0.01 | OC(C1CCc2cccnc21)C1(c2ccccc2OC(F)(F)F)CCC1 (stereo not drawn) [Example 194, (syn)-6,7-dihydro-5H-cyclopenta[b]pyridin-7-yl{1-[2-(trifluoromethoxy)-phenyl]cyclobutyl}methanol] | – | – |
| 0.18 | – | OC(C1CCc2cccnc21)C1(c2cccc(C(F)(F)F)c2)CCC1 (stereo not drawn) [Example 186, (syn)-6,7-dihydro-5H-cyclopenta[b]pyridin-7-yl{1-[3-(trifluoromethyl)-phenyl]cyclobutyl}methanol] | – | – |
| 20 | <0.01 | OC(C1CCc2cccnc21)C1(c2ccc(OC(F)(F)F)cc2)CCC1 (stereo not drawn) [Example 176, (syn)-6,7-dihydro-5H-cyclopenta[b]pyridin-7-yl{1-[4-(trifluoromethoxy)-phenyl]cyclobutyl}methanol] | – | – |
| 0.05 | <0.01 | OC(C1CCc2cccnc21)C1(c2ccccc2C(F)(F)F)CCC1 (stereo not drawn) [Example 198, (syn)-6,7-dihydro-5H-cyclopenta[b]pyridin-7-yl{1-[2-(trifluoromethyl)-phenyl]cyclobutyl}methanol] | – | – |
| <0.01 | <0.01 | OC(C1CCCc2cccnc21)C1(c2ccccc2OC(F)(F)F)CCC1 (stereo not drawn) [Example 191, (anti)-5,6,7,8-tetrahydroquinolin-8-yl{1-[2-(trifluoromethoxy)phenyl]-cyclobutyl}methanol] | – | – |
| 29 | <0.01 | OC(C1CCc2cccnc21)C1(c2ccc(OC(F)(F)F)cc2)CCC1 (stereo not drawn) [Example 175, (anti)-6,7-dihydro-5H-cyclopenta[b]pyridin-7-yl{1-[4-(trifluoromethoxy)-phenyl]cyclobutyl}methanol] | – | – |
| <0.01 | <0.01 | OC(C1CCCc2cccnc21)C1(c2cccc(OC(F)(F)F)c2)CCC1 (stereo not drawn) [Example 187, (anti)-5,6,7,8-tetrahydroquinolin-8-yl{1-[3-(trifluoromethoxy)phenyl]-cyclobutyl}methanol] | – | – |
| 0.39 | <0.01 | OC(C1CCc2cccnc21)C1(c2cccc(C(F)(F)F)c2)CCC1 (stereo not drawn) [Example 185, (anti)-6,7-dihydro-5H-cyclopenta[b]pyridin-7-yl{1-[3-(trifluoromethyl)-phenyl]cyclobutyl}methanol] | – | – |
| 41 | 0.18 | Nc1cccnc1C(O)C1(c2ccc(OC(F)(F)F)cc2)CCC1 (stereo not drawn) [Example 121, (3-aminopyridin-2-yl){1-[4-(trifluoromethoxy)phenyl]cyclobutyl}methanol] | – | – |
| 0.46 | <0.01 | OC(C1CCCc2cccnc21)C1(c2ccc(C(F)(F)F)cc2)CCC1 (single isomer, unassigned) [Example 184, (syn)-5,6,7,8-tetrahydroquinolin-8-yl{1-[4-(trifluoromethyl)phenyl]-cyclobutyl}methanol] | – | – |

More lines, now with the values behind:

| SMILES | HUMAN MICROSOMAL STABILITY (% REMAINING AFTER 30 MINUTES) ([1]; human, 0.5 h, 0.5 μM, pH 7.4) [%] | RAT MICROSOMAL STABILITY (% REMAINING AFTER 30 MINUTES) [2, 3] [%] | HUMAN MICROSOMAL STABILITY (% REMAINING AFTER 30 MINUTES) [1, 4] [%] | RAT MICROSOMAL STABILITY (% REMAINING AFTER 30 MINUTES) [2, 4] [%] |
| --- | --- | --- | --- | --- |
| OC(C1CCCc2cccnc21)C1(c2cccc(C(F)(F)F)c2)CCC1 (single isomer, unassigned) [Example 180, (syn)-5,6,7,8-tetrahydroquinolin-8-yl{1-[3-(trifluoromethyl)phenyl]-cyclobutyl}methanol] | <0.01 | <0.01 | – | – |
| O[C@@H](c1ncccn1)C1(c2ccc(C(F)(F)F)cc2)CCC1 [Example 42, (R)-pyrimidin-2-yl{1-[4-(trifluoromethyl)phenyl]cyclobutyl}methanol] | 50 | 40 | – | – |
| O=C1CC(c2cc(C(F)(F)F)ccn2)(C(O)c2ccccn2)C1 (stereo not drawn) [Example 293, 3-[hydroxy(pyridin-2-yl)methyl]-3-[4-(trifluoromethyl)pyridin-2-yl]cyclobutanone] | 78 | 69 | – | – |
| CN1CCC(c2ccc(C(F)(F)F)cc2)(C(O)c2ccccn2)CC1 (stereo not drawn) [Example 143, {1-methyl-4-[4-(trifluoromethyl)phenyl]piperidin-4-yl}(pyridin-2-yl)-methanol] | – | – | >85 | 80 |
| OC(c1ccccn1)C1(c2ccc(OC(F)(F)F)cc2)CCNCC1 (stereo not drawn) [Example 144, pyridin-2-yl{4-[4-(trifluoromethoxy)phenyl]piperidin-4-yl}methanol] | >85 | 51 | – | – |
| OC(C1CCc2cccnc21)C1(c2ccc(F)c(F)c2)CCC1 (stereo not drawn) [Example 171, (anti)-[1-(3,4-difluorophenyl)cyclobutyl][6,7-dihydro-5H-cyclopenta[b]-pyridin-7-yl]methanol] | 2.7 | <0.01 | – | – |
| Nc1cccnc1C(O)C1(c2cccc(OC(F)(F)F)c2)CCC1 (stereo not drawn) [Example 124, (3-aminopyridin-2-yl){1-[3-(trifluoromethoxy)phenyl]cyclobutyl}methanol] | 1.6 | <0.01 | – | – |
| O=C1CC(c2ccnc(C(F)(F)F)c2)(C(O)c2ccccn2)C1 (stereo not drawn) [Example 298, 3-[hydroxy(pyridin-2-yl)methyl]-3-[2-(trifluoromethyl)pyridin-4-yl]cyclobutanone] | 80 | 59 | – | – |
| O=C1CC(c2cccc(C(F)(F)F)c2)([C@H](O)c2ccccn2)C1 [Example 241, 3-[(S)-hydroxy(pyridin-2-yl)methyl]-3-[3-(trifluoromethyl)phenyl]-cyclobutanone] | 66 | 59 | – | – |
| OC1CC(c2ccc(Cl)c(Cl)c2)(C(O)c2ncccn2)C1 (single isomer, unassigned) [Example 313] | 81 | >85 | – | – |
| OC(C1CCc2cccnc21)C1(c2ccc(F)c(F)c2)CCC1 (stereo not drawn) [Example 172, (syn)-[1-(3,4-difluorophenyl)cyclobutyl][6,7-dihydro-5H-cyclopenta[b]-pyridin-7-yl]methanol] | 2.4 | <0.01 | – | – |
| OC(c1ccccn1)C1(c2ccccn2)CCC1 (stereo not drawn) [Example 19, pyridin-2-yl(1-pyridin-2-ylcyclobutyl)methanol] | >85 | 76 | – | – |
| O=C1CC(c2cccc(OC(F)(F)F)c2)([C@@H](O)c2ccccn2)C1 [Example 257, 3-[(R)-hydroxy(pyridin-2-yl)methyl]-3-[3-(trifluoromethoxy)phenyl]-cyclobutanone] | 42 | 57 | – | – |
| OC(c1ccccn1)C1(c2cccc(F)c2)CCCO1 (single isomer, unassigned) [Example 101, (syn)-[2-(3-fluorophenyl)tetrahydrofuran-2-yl](pyridin-2-yl)methanol] | 40 | 0.17 | – | – |
| OC(c1ccccn1)C1(C2CCOC2)CCC1 (stereo not drawn) [Example 284, pyridin-2-yl[1-(tetrahydrofuran-3-yl)cyclobutyl]methanol] | >85 | 16 | – | – |
| OC(c1ccccn1)C1(c2ccccc2F)CCCO1 (stereo not drawn) [Example 102] | 45 | 0.55 | – | – |
| O=C1CC(c2cccc(C(F)(F)F)c2)([C@@H](O)c2ccccn2)C1 [Example 243, 3-[(R)-hydroxy(pyridin-2-yl)methyl]-3-[3-(trifluoromethyl)phenyl]-cyclobutanone] | 64 | 55 | – | – |
| O[C@H](c1ncccn1)C1(c2ccc(C(F)(F)F)cc2)CCC1 [Example 41, (S)-pyrimidin-2-yl{1-[4-(trifluoromethyl)phenyl]cyclobutyl}methanol] | 54 | 21 | – | – |
| OC(C1CCc2cccnc21)C1(c2ccc(Cl)c(Cl)c2)CCC1 (stereo not drawn) [Example 167, (anti)-[1-(3,4-dichlorophenyl)cyclobutyl][6,7-dihydro-5H-cyclopenta[b]-pyridin-7-yl]methanol] | 9.5 | <0.01 | – | – |
| CC1(O)CC(c2ccc(OC(F)(F)F)cc2)(C(O)c2ncccn2)C1 [Example 310, (trans)-3-((S)-hydroxy(pyrimidin-2-yl)methyl)-1-methyl-3-(4-(trifluoromethoxy)phenyl)cyclobutanol] | >85 | >85 | – | – |
| CC(C)(C)OC(=O)N1CCC(c2cccc(OC(F)(F)F)c2)(C(O)c2ccccn2)CC1 (stereo not drawn) [Example 158, tert-butyl 4-[hydroxy(pyridin-2-yl)methyl]-4-[3-(trifluoromethoxy)phenyl]-piperidine-1-carboxylate] | – | – | 3.7 | 0.04 |
| OC(C1CCCc2cccnc21)C1(c2ccc(F)c(F)c2)CCC1 (stereo not drawn) [Example 170, (syn)-[1-(3,4-difluorophenyl)cyclobutyl][5,6,7,8-tetrahydroquinolin-8-yl]-methanol] | <0.01 | <0.01 | – | – |
